Data published in PMC7531004, “Discovery of gramicidin A analogues with altered activities by multidimensional screening of a one-bead-one-compound library” (Nature Communications, 2020).
Where a SMILES comes first, the peptide text is derived from it. [ ]: non-standard residue; d: D form. The star is where a group is joined. NHCH2CH2OH = OCCN*; For = O=C*

Experiments:
[1] = H+/Na+ transport assay of bead-derived peptides (one-point); type: biochemical; set-up: key: relative activity; mean of two control wells = 1.00; conditions: bead-derived peptide solution, EYPC/EYPG LUVs;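 further: relative to parent gramicidin A activity set to 1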
Method in brief: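 Values are normalized fluorescence, with Triton X-100 defining 100% and untreated LUVs 0%, and the two control wells averaging 1.00. Vesicles carried 1.0 mM pyranine and included egg yolk phosphatidylglycerol. Peptides were incubated with them 30 min at room temperature.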

[2] = tested on: P388 mouse leukemia cells; conditions: 92 h
Method in brief: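 Peptide stocks diluted 250× in growth medium; P388 cells 1 × 10^4 cells/mL final; 37 °C, 5% CO2, 92 h. WST-1 + 1-methoxy PMS, 4 h, A415. Output: % viability.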

[3] = tested on: Streptococcus pyogenes SSI-9; test: Antibacterial activity assay of bead-derived peptides (three concentrations); type: cell-based; set-up: key: +++: inhibition by the 640-fold diluted peptide solution; ++: inhibition by the 160-fold diluted solution; +: inhibition by the 40-fold diluted solution; -: no inhibition; conditions: S. pyogenes, bead-derived peptide solution, three concentrations
Method in brief: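 Growth inhibition scored visually as precipitated bacteria after 37 °C, 18 h incubation. Streptococcus pyogenes SSI-9 inoculum of 2 × 10^5 CFU in Ca2+/Mg2+-adjusted Mueller Hinton broth plus 5% laked horse blood; peptides tested at three levels: stock, 4-fold and 16-fold DMSO dilutions.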

Structure (SMILES) | H+/Na+ transport activity normalized against the value of 1 (1.00) [1] | cell viability/% [2] | antibacterial activity [3]
CNC(=O)C[C@@H](NC(=O)[C@@H](NC(=O)[C@@H](CC(C)C)NC(=O)[C@H](C)NC(=O)[C@H](NC(=O)[C@H](C)NC(=O)CNC(=O)[C@@H](NC=O)C(C)C)C(C)C)C(C)C)C(=O)N[C@@H](Cc1c[nH]c2ccccc12)C(=O)N[C@H](CC(C)C)C(=O)N[C@@H](Cc1c[nH]c2ccccc12)C(=O)N[C@@H](C(=O)N[C@@H](Cc1c[nH]c2ccccc12)C(=O)N[C@@H](C(=O)N[C@@H](Cc1c[nH]c2ccccc12)C(=O)NCCO)C(C)C)C(C)C [compound 6822] (For-VGA[dV]A[dL]V[dD](NHMe)W[dL]W[dV]W[dV]W-NHCH2CH2OH) | 1.23 | 100.0% | -
CC(C)C[C@@H](NC(=O)[C@H](C)NC(=O)[C@H](NC(=O)[C@H](C)NC(=O)CNC(=O)[C@@H](NC=O)C(C)C)C(C)C)C(=O)N[C@H](C(=O)N[C@H](CC(C)C)C(=O)N[C@@H](Cc1c[nH]c2ccccc12)C(=O)N[C@@H](C(=O)N[C@@H](Cc1c[nH]c2ccccc12)C(=O)N[C@H](CC(C)C)C(=O)N[C@@H](Cc1c[nH]c2ccccc12)C(=O)N[C@@H](C(=O)N[C@@H](Cc1c[nH]c2ccccc12)C(=O)NCCO)C(C)C)C(C)C)C(C)C [compound 906] (For-VGA[dV]A[dL]V[dL]W[dV]W[dL]W[dV]W-NHCH2CH2OH) | 1.06 | 100.0% | +
CC(C)C[C@@H](NC(=O)[C@H](C)NC(=O)CNC(=O)[C@@H](NC=O)C(C)C)C(=O)N[C@@H](C)C(=O)N[C@H](CC(C)C)C(=O)N[C@H](C(=O)N[C@@H](C(=O)N[C@@H](Cc1c[nH]c2ccccc12)C(=O)N[C@@H](C(=O)N[C@@H](Cc1c[nH]c2ccccc12)C(=O)N[C@@H](C(=O)N[C@@H](Cc1c[nH]c2ccccc12)C(=O)N[C@H](CC(C)C)C(=O)N[C@@H](Cc1c[nH]c2ccccc12)C(=O)NCCO)C(C)C)[C@H](C)O)C(C)C)C(C)C [compound 4031] (For-VGA[dL]A[dL]V[dV]W[dT]W[dV]W[dL]W-NHCH2CH2OH) | 1.05 | 92.4% | -
CC(C)C[C@@H](NC(=O)[C@H](C)NC(=O)CNC(=O)[C@@H](NC=O)C(C)C)C(=O)N[C@@H](C)C(=O)N[C@H](CC(C)C)C(=O)N[C@H](C(=O)N[C@H](CC(C)C)C(=O)N[C@@H](Cc1c[nH]c2ccccc12)C(=O)N[C@H](CC(C)C)C(=O)N[C@@H](Cc1c[nH]c2ccccc12)C(=O)N[C@H](CC(C)C)C(=O)N[C@@H](Cc1c[nH]c2ccccc12)C(=O)N[C@@H](C(=O)N[C@@H](Cc1c[nH]c2ccccc12)C(=O)NCCO)C(C)C)C(C)C [compound 2205] (For-VGA[dL]A[dL]V[dL]W[dL]W[dL]W[dV]W-NHCH2CH2OH) | 1.01 | 0.0% | -
CC(C)C[C@@H](NC(=O)[C@H](C)NC(=O)CNC(=O)[C@@H](NC=O)C(C)C)C(=O)N[C@@H](C)C(=O)N[C@H](CC(C)C)C(=O)N[C@H](C(=O)N[C@@H](C(=O)N[C@@H](Cc1c[nH]c2ccccc12)C(=O)N[C@@H](C(=O)N[C@@H](Cc1c[nH]c2ccccc12)C(=O)N[C@@H](C(=O)N[C@@H](Cc1c[nH]c2ccccc12)C(=O)N[C@@H](C(=O)N[C@@H](Cc1c[nH]c2ccccc12)C(=O)NCCO)C(C)C)C(C)C)C(C)C)C(C)C)C(C)C [compound 13128] (For-VGA[dL]A[dL]V[dV]W[dV]W[dV]W[dV]W-NHCH2CH2OH) | 1.24 | 100.0% | +
CNC(=O)C[C@@H](NC(=O)[C@H](C)NC(=O)[C@@H](CC(C)C)NC(=O)[C@H](C)NC(=O)CNC(=O)[C@@H](NC=O)C(C)C)C(=O)N[C@H](C(=O)N[C@@H](C(=O)N[C@@H](Cc1c[nH]c2ccccc12)C(=O)N[C@H](CC(C)C)C(=O)N[C@@H](Cc1c[nH]c2ccccc12)C(=O)N[C@@H](C(=O)N[C@@H](Cc1c[nH]c2ccccc12)C(=O)N[C@H](CC(C)C)C(=O)N[C@@H](Cc1c[nH]c2ccccc12)C(=O)NCCO)C(C)C)C(C)C)C(C)C [compound 9352] (For-VGA[dL]A[dD](NHMe)V[dV]W[dL]W[dV]W[dL]W-NHCH2CH2OH) | 1.18 | 100.0% | -
CC(C)C[C@@H](NC(=O)[C@H](Cc1c[nH]c2ccccc12)NC(=O)[C@H](NC(=O)[C@H](Cc1c[nH]c2ccccc12)NC(=O)[C@@H](CC(C)C)NC(=O)[C@H](Cc1c[nH]c2ccccc12)NC(=O)[C@H](NC(=O)[C@@H](NC(=O)[C@H](NC(=O)[C@H](C)NC(=O)[C@H](NC(=O)[C@H](C)NC(=O)CNC(=O)[C@@H](NC=O)C(C)C)[C@H](C)O)C(C)C)C(C)C)C(C)C)C(C)C)C(=O)N[C@@H](Cc1c[nH]c2ccccc12)C(=O)NCCO [compound 3548] (For-VGA[dT]A[dV]V[dV]W[dL]W[dV]W[dL]W-NHCH2CH2OH) | 1.16 | 100.0% | -
CC(C)C[C@@H](NC(=O)[C@H](C)NC(=O)[C@H](NC(=O)[C@H](C)NC(=O)CNC(=O)[C@@H](NC=O)C(C)C)C(C)C)C(=O)N[C@H](C(=O)N[C@@H](C(=O)N[C@@H](Cc1c[nH]c2ccccc12)C(=O)N[C@H](CC(C)C)C(=O)N[C@@H](Cc1c[nH]c2ccccc12)C(=O)N[C@@H](C(=O)N[C@@H](Cc1c[nH]c2ccccc12)C(=O)N[C@@H](C(=O)N[C@@H](Cc1c[nH]c2ccccc12)C(=O)NCCO)C(C)C)C(C)C)C(C)C)C(C)C [compound 8697] (For-VGA[dV]A[dL]V[dV]W[dL]W[dV]W[dV]W-NHCH2CH2OH) | 1.04 | 100.0% | +
CC(C)C[C@@H](NC(=O)[C@H](Cc1c[nH]c2ccccc12)NC(=O)[C@H](NC(=O)[C@H](Cc1c[nH]c2ccccc12)NC(=O)[C@H](NC(=O)[C@H](Cc1c[nH]c2ccccc12)NC(=O)[C@@H](CC(C)C)NC(=O)[C@@H](NC(=O)[C@H](NC(=O)[C@H](C)NC(=O)[C@H](NC(=O)[C@H](C)NC(=O)CNC(=O)[C@@H](NC=O)C(C)C)C(C)C)C(C)C)C(C)C)C(C)C)C(C)C)C(=O)N[C@@H](Cc1c[nH]c2ccccc12)C(=O)NCCO [compound 448] (For-VGA[dV]A[dV]V[dL]W[dV]W[dV]W[dL]W-NHCH2CH2OH) | 1.07 | 34.1% | +
CC(C)C[C@@H](NC(=O)[C@H](C)NC(=O)CNC(=O)[C@@H](NC=O)C(C)C)C(=O)N[C@@H](C)C(=O)N[C@@H](C(=O)N[C@H](C(=O)N[C@@H](C(=O)N[C@@H](Cc1c[nH]c2ccccc12)C(=O)N[C@@H](C(=O)N[C@@H](Cc1c[nH]c2ccccc12)C(=O)N[C@H](CC(C)C)C(=O)N[C@@H](Cc1c[nH]c2ccccc12)C(=O)N[C@@H](C(=O)N[C@@H](Cc1c[nH]c2ccccc12)C(=O)NCCO)C(C)C)C(C)C)C(C)C)C(C)C)C(C)C [compound 5393] (For-VGA[dL]A[dV]V[dV]W[dV]W[dL]W[dV]W-NHCH2CH2OH) | 1.32 | 100.0% | +
CNC(=O)C[C@@H](NC(=O)[C@@H](NC(=O)[C@H](NC(=O)[C@H](C)NC(=O)[C@H](NC(=O)[C@H](C)NC(=O)CNC(=O)[C@@H](NC=O)C(C)C)C(C)C)C(C)C)C(C)C)C(=O)N[C@@H](Cc1c[nH]c2ccccc12)C(=O)N[C@H](CC(C)C)C(=O)N[C@@H](Cc1c[nH]c2ccccc12)C(=O)N[C@H](CC(C)C)C(=O)N[C@@H](Cc1c[nH]c2ccccc12)C(=O)N[C@@H](C(=O)N[C@@H](Cc1c[nH]c2ccccc12)C(=O)NCCO)C(C)C [compound 11796] (For-VGA[dV]A[dV]V[dD](NHMe)W[dL]W[dL]W[dV]W-NHCH2CH2OH) | 1.33 | 100.0% | -
CC(C)C[C@@H](NC(=O)[C@H](C)NC(=O)CNC(=O)[C@@H](NC=O)C(C)C)C(=O)N[C@@H](C)C(=O)N[C@H](CC(C)C)C(=O)N[C@H](C(=O)N[C@H](CC(C)C)C(=O)N[C@@H](Cc1c[nH]c2ccccc12)C(=O)N[C@H](CC(C)C)C(=O)N[C@@H](Cc1c[nH]c2ccccc12)C(=O)N[C@@H](C(=O)N[C@@H](Cc1c[nH]c2ccccc12)C(=O)N[C@H](CC(C)C)C(=O)N[C@@H](Cc1c[nH]c2ccccc12)C(=O)NCCO)[C@H](C)O)C(C)C [compound 2283] (For-VGA[dL]A[dL]V[dL]W[dL]W[dT]W[dL]W-NHCH2CH2OH) | 1.07 | 100.0% | -
CC(C)C[C@@H](NC(=O)[C@H](C)NC(=O)CNC(=O)[C@@H](NC=O)C(C)C)C(=O)N[C@@H](C)C(=O)N[C@@H](C(=O)N[C@H](C(=O)N[C@@H](C(=O)N[C@@H](Cc1c[nH]c2ccccc12)C(=O)N[C@@H](C(=O)N[C@@H](Cc1c[nH]c2ccccc12)C(=O)N[C@@H](C(=O)N[C@@H](Cc1c[nH]c2ccccc12)C(=O)N[C@@H](C(=O)N[C@@H](Cc1c[nH]c2ccccc12)C(=O)NCCO)C(C)C)C(C)C)C(C)C)C(C)C)C(C)C)C(C)C [compound 9992] (For-VGA[dL]A[dV]V[dV]W[dV]W[dV]W[dV]W-NHCH2CH2OH) | 1.23 | 100.0% | +
